Results published in ChEMBL document CHEMBL1158877, “Sesquiterpenoids of the drimane class from a sponge of the genus Dysidea” (J Nat Prod, 1997).
Activity calls are given as the source filed them. The rule behind the calls is not given here.

What was measured:
[1] = tested on: Photobacterium leiognathi; assay: Antimicrobial activity against Photobacterium leiognathi by bioluminescence; type: functional, organism-based
[2] = tested on: Photobacterium leiognathi; assay: Antimicrobial activity against Photobacterium leiognathi at 10 ug/ml by paper disk method; type: functional
[3] = Inhibition of Na+/K+-ATPase
[4] = Inhibition of PLA2

| Structure (SMILES) | Activity [1] | Activity [2] | Activity [3] | Activity [4] | IC50 [3] [µM] | IC50 [1] [µM] | zone of inhibition at 10 µg/mL ([2]; read-out: IZ) [mm] | IC50 [4] [µM] |
| --- | --- | --- | --- | --- | --- | --- | --- | --- |
| CC(=O)OC[C@H]1CC[C@H]2C(C)(C)CCC[C@]2(C)[C@H]1COC(C)=O | inactive | inactive | inactive | inactive | – | – | – | – |
| CC(=O)O[C@@H]1OC(=O)C2=C1[C@@]1(C)CCCC(C)(C)[C@@H]1CC2 | inactive | inactive | – | inactive | 98 | – | – | – |
| CO[C@@H]1OC[C@H]2CC[C@H]3C(C)(C)CCC[C@]3(C)[C@H]21 | – | inactive | inactive | inactive | – | 90 | – | – |
| CC(=O)O[C@@H]1OC(=O)C2=CC[C@H]3C(C)(C)CCC[C@]3(C)[C@H]21 | inactive | inactive | inactive | inactive | – | – | – | – |
| CC1(C)CCC[C@]2(C)/C(=C/O)C(=O)CC[C@@H]12 | inactive | inactive | inactive | inactive | – | – | – | – |
| CC(=O)OC[C@H]1[C@@H](OC(C)=O)CC[C@H]2C(C)(C)CCC[C@]12C | – | inactive | inactive | inactive | – | 90 | – | – |
| CC(=O)O[C@@H]1OC=C2CC[C@H]3C(C)(C)CCC[C@]3(C)[C@H]21 | – | inactive | inactive | inactive | – | 90 | – | – |
| CC1(C)CCC[C@]2(C)[C@@H](C=O)C(C=O)=CC[C@@H]12 [POLYGODIAL] | – | – | – | inactive | 82 | 11.4 | 8 | – |
| CC1(C)CCC[C@]2(C)[C@H]3C(=O)OC[C@@H]3CC[C@@H]12 | – | inactive | – | – | 45 | 90 | – | 113 |
| CO[C@@H]1O[C@H](O)[C@@]2(O)CC[C@H]3C(C)(C)CCC[C@]3(C)[C@@H]12 | inactive | inactive | inactive | inactive | – | – | – | – |
